Nine compounds from US9708314B2, “Heterocyclic amide compound” (NISSAN CHEMICAL INDUSTRIES, LTD., priority 2013, dated 2017) can be followed below.

The structures appear in SMILES notation.

Holding throughout (format): in vivo
The test system of data set [1] is Echinochloa oryzacola Vasing. The data set can be described thus: Test Example 1: herbicidal activity, application before weed generation in submerged conditions. The settings on record: Application herbicide amount 320 g/ha; Seventeenth Table. The text has this: (§1) [Test Example 1] Herbicidal Activity Test by Application Before Weed Generation in Submerged Conditions After alluvial soil was placed into 1/10000 are of Wagner pot, water was poured and mixed to form a submerged condition having a water depth of 4 cm. Seeds of Echinochloa oryzacola Vasing., Scirpus juncoides, and Monochoria vaginalis were sowed in a mixed manner in the above pot and thereafter 2.5 leaf stage Oryza sativa seedling was transplanted. On the day of sowing seeds, the emulsion agent containing the compound of the present invention prepared in accordance with Formulation Example 2 was diluted with water so as to be a predetermined herbicide amount and the diluted compound was applied to the surface of the water. The pot was placed in a greenhouse of 25° C. to 30° C. to grow plant. Three weeks after the herbicide application, effects on each plant were investigated in accordance with the following criteria. Criteria 5 Herbicidal ratio of 90% or more (almost completely withered) 4 Herbicidal ratio of 70% or more and less than 90% 3 Herbicidal ratio of 40% or more and less than 70% 2 Herbicidal ratio of 20% or more and less than 40% 1 Herbicidal ratio of 5% or more and less than 20% 0 Herbicidal ratio of 5% or less (almost no effect) A: Echinochloa oryzicola Vasing., B: Scirpus juncoides, C: Monochoria vaginalis, D: Leptochloa chinensis, E: Cyperus difformis, F: Digitaria ciliaris, G: Setaria viridis, H: Echinochloa crus-galli var. crus-galli, I: Avena fatua, J: Alopecurus myosuroides, K: Lolium multiflorum Lam., L: Apera spica-venti., M: Abutilon theophrasti, N: Amaranthus retroflexus, O: Chenopodium album, P: Stellaria media, Q: Galium spurium, R: Veronica persica, a: transplanted Oryza sativa, b: directly sowed Oryza sativa, c: Zea mays, d: Glycine max, e: Triticum aestivum, f: Beta vulgaris ssp. vulgaris, and g: Brassica campestris L. The application herbicide amount (g/ha) means an amount that a concentration is adjusted so that, when an application amount is converted into per hectare (1 ha), the herbicide is applied by the number of grams (g) of the described value.

For a further data set, the system named is Monochoria vaginalis. The data set is described as above. The settings on record: Application herbicide amount 320 g/ha; Seventeenth Table.
Excerpt: as §1

The test system of another data set is Scirpus juncoides. Described as above. The settings on record: Application herbicide amount 320 g/ha; Seventeenth Table.
Excerpt: as §1

Data set [2] concerns transplanted Oryza sativa. The data set can be described thus: Test Example 1: effect on crop, application before weed generation in submerged conditions. The settings on record: Application herbicide amount 320 g/ha; Seventeenth Table.
Excerpt: as §1

The next data set relates to Cyperus difformis. Briefly: Test Example 3: herbicidal effect by application to foliage (Wagner pot, water depth 0.1-0.5 cm). The settings on record: Nineteenth Table; application to foliage; application herbicide amount 320 g/ha. Put shortly:
(§2)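 Foliar spray, 14-day-old plants, emulsion diluted to target g/ha; rated 3 wk post-application, 0–5 scale (0 ≤5%, 5 ≥90% herbicidal ratio). Greenhouse 25–30 °C, alluvial soil.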

Data set [3] concerns Echinochloa crus-galli var. crus-galli. Described as above. The settings on record: Nineteenth Table; application to foliage; application herbicide amount 320 g/ha. The method, boiled down: as §2
In the next data set the test system is Leptochloa chinensis. The data set is described as above. The settings on record: Nineteenth Table; application to foliage; application herbicide amount 320 g/ha. The method, boiled down:
as §2

Data set [4] deals with directly sowed Oryza sativa. The data set can be described thus: Test Example 3: effect on crop by application to foliage (Wagner pot, water depth 0.1-0.5 cm). The settings on record: Nineteenth Table; application to foliage; application herbicide amount 320 g/ha. Put shortly: as §2

As for `Cc1nnc(NC(=O)c2ccc(C(F)(F)F)n3c(N(C)C)nnc23)o1` [1-076], the “A: Echinochloa oryzicola Vasing. (herbicidal effect grade)” value in data set [1] is 5 (Herbicidal ratio of 90% or more (almost completely withered)). Besides, the “C: Monochoria vaginalis (herbicidal effect grade)” value (“C: Monochoria vaginalis” for short) in the data set on Monochoria vaginalis was 4 (Herbicidal ratio of 70% or more and less than 90%). Further, the “B: Scirpus juncoides (herbicidal effect grade)” value (from here on “B: Scirpus juncoides”) in the data set on Scirpus juncoides is 4 (Herbicidal ratio of 70% or more and less than 90%). Moreover, the “a: transplanted Oryza sativa (effect on crop grade)” value (from here on “a: transplanted Oryza sativa”) in data set [2] was 3 (Herbicidal ratio of 40% or more and less than 70%). In the data set on Cyperus difformis, the “E (herbicidal effect grade)” value is 5 (Herbicidal ratio of 90% or more (almost completely withered)). The “H (herbicidal effect grade)” value in data set [3] is on record as 5 (Herbicidal ratio of 90% or more (almost completely withered)). The “D (herbicidal effect grade)” value with Leptochloa chinensis is recorded as 5 (Herbicidal ratio of 90% or more (almost completely withered)). Moreover, in data set [4], the “b (effect on crop grade)” value is 3 (Herbicidal ratio of 40% or more and less than 70%).

For `Cc1nnc(NC(=O)c2ccc(C(F)(F)F)n3c(C(C)S(C)(=O)=O)nnc23)o1` (centres unmarked) [1-080], the “A: Echinochloa oryzicola Vasing. (herbicidal effect grade)” value in data set [1] was 5 (Herbicidal ratio of 90% or more (almost completely withered)). Besides, the “C: Monochoria vaginalis” value with Monochoria vaginalis was 4 (Herbicidal ratio of 70% or more and less than 90%). Further, the “B: Scirpus juncoides” value in the data set with Scirpus juncoides was 4 (Herbicidal ratio of 70% or more and less than 90%). In data set [2], the “a: transplanted Oryza sativa” value is 4 (Herbicidal ratio of 70% or more and less than 90%). In addition, the “E (herbicidal effect grade)” value with Cyperus difformis is reported as 5 (Herbicidal ratio of 90% or more (almost completely withered)). Moreover, the “H (herbicidal effect grade)” value in data set [3] is reported as 5 (Herbicidal ratio of 90% or more (almost completely withered)). Also, the “D (herbicidal effect grade)” value with Leptochloa chinensis is recorded as 5 (Herbicidal ratio of 90% or more (almost completely withered)). In data set [4], the “b (effect on crop grade)” value is reported as 5 (Herbicidal ratio of 90% or more (almost completely withered)).

For the compound `Cc1nnc(NC(=O)c2ccc(C(F)(F)F)n3c(Nc4ccccc4)nnc23)o1` [1-082], the “A: Echinochloa oryzicola Vasing. (herbicidal effect grade)” value in data set [1] is 3 (Herbicidal ratio of 40% or more and less than 70%). For the same compound, in the data set with Monochoria vaginalis, the “C: Monochoria vaginalis” value was 2 (Herbicidal ratio of 20% or more and less than 40%). The “B: Scirpus juncoides” value in the data set with Scirpus juncoides was 2 (Herbicidal ratio of 20% or more and less than 40%). Besides, in data set [2], the “a: transplanted Oryza sativa” value is recorded as 0 (Herbicidal ratio of 5% or less (almost no effect)). The “E (herbicidal effect grade)” value in the data set on Cyperus difformis is 4 (Herbicidal ratio of 70% or more and less than 90%). Also, the “H (herbicidal effect grade)” value in data set [3] is 4 (Herbicidal ratio of 70% or more and less than 90%). Besides, the “D (herbicidal effect grade)” value in the data set on Leptochloa chinensis is 4 (Herbicidal ratio of 70% or more and less than 90%). Besides, the “b (effect on crop grade)” value in data set [4] is given as 0 (Herbicidal ratio of 5% or less (almost no effect)).

As to `Cc1nnc(NC(=O)c2cc(C)c(C(F)(F)F)n3c(C(C)C)nnc23)o1` [1-075], the “A: Echinochloa oryzicola Vasing. (herbicidal effect grade)” value in data set [1] was 2 (Herbicidal ratio of 20% or more and less than 40%). The “C: Monochoria vaginalis” value with Monochoria vaginalis is 2 (Herbicidal ratio of 20% or more and less than 40%). In addition, the “B: Scirpus juncoides” value with Scirpus juncoides is 0 (Herbicidal ratio of 5% or less (almost no effect)). The “a: transplanted Oryza sativa” value in data set [2] was 0 (Herbicidal ratio of 5% or less (almost no effect)). The “E (herbicidal effect grade)” value in the data set on Cyperus difformis is 4 (Herbicidal ratio of 70% or more and less than 90%). Further, the “H (herbicidal effect grade)” value in data set [3] is on record as 5 (Herbicidal ratio of 90% or more (almost completely withered)). Besides, the “D (herbicidal effect grade)” value in the data set with Leptochloa chinensis is 4 (Herbicidal ratio of 70% or more and less than 90%). Also, in data set [4], the “b (effect on crop grade)” value is 1 (Herbicidal ratio of 5% or more and less than 20%).

Turning to `Cc1nnc(NC(=O)c2ccc(C(F)(F)F)n3c(-c4cccs4)nnc23)o1` [1-057], the “A: Echinochloa oryzicola Vasing. (herbicidal effect grade)” value in data set [1] was 5 (Herbicidal ratio of 90% or more (almost completely withered)). The “C: Monochoria vaginalis” value in the data set with Monochoria vaginalis is 4 (Herbicidal ratio of 70% or more and less than 90%). The “B: Scirpus juncoides” value in the data set on Scirpus juncoides was 5 (Herbicidal ratio of 90% or more (almost completely withered)). The “a: transplanted Oryza sativa” value in data set [2] is 2 (Herbicidal ratio of 20% or more and less than 40%). Further, the “E (herbicidal effect grade)” value in the data set on Cyperus difformis is on record as 5 (Herbicidal ratio of 90% or more (almost completely withered)). In addition, the “H (herbicidal effect grade)” value in data set [3] is given as 5 (Herbicidal ratio of 90% or more (almost completely withered)). In addition, the “D (herbicidal effect grade)” value in the data set with Leptochloa chinensis was 5 (Herbicidal ratio of 90% or more (almost completely withered)). The “b (effect on crop grade)” value in data set [4] was 3 (Herbicidal ratio of 40% or more and less than 70%).

For the compound `Cc1nnc(NC(=O)c2ccc(C(F)(F)F)n3c(N(C)c4ccccc4)nnc23)o1` [1-086], the “A: Echinochloa oryzicola Vasing. (herbicidal effect grade)” value in data set [1] is on record as 5 (Herbicidal ratio of 90% or more (almost completely withered)). The “C: Monochoria vaginalis” value in the data set on Monochoria vaginalis was 4 (Herbicidal ratio of 70% or more and less than 90%). The “B: Scirpus juncoides” value with Scirpus juncoides was 4 (Herbicidal ratio of 70% or more and less than 90%). The “a: transplanted Oryza sativa” value in data set [2] is recorded as 5 (Herbicidal ratio of 90% or more (almost completely withered)). The “E (herbicidal effect grade)” value in the data set on Cyperus difformis was 5 (Herbicidal ratio of 90% or more (almost completely withered)). Further, the “H (herbicidal effect grade)” value in data set [3] was 5 (Herbicidal ratio of 90% or more (almost completely withered)). In addition, in the data set on Leptochloa chinensis, the “D (herbicidal effect grade)” value is reported as 5 (Herbicidal ratio of 90% or more (almost completely withered)). For the same compound, in data set [4], the “b (effect on crop grade)” value is 0 (Herbicidal ratio of 5% or less (almost no effect)).

For the compound `Cc1nnc(NC(=O)c2ccc(C(F)(F)F)n3c(CO)nnc23)o1` [1-067], the “A: Echinochloa oryzicola Vasing. (herbicidal effect grade)” value in data set [1] is 3 (Herbicidal ratio of 40% or more and less than 70%). In the data set with Monochoria vaginalis, the “C: Monochoria vaginalis” value is 0 (Herbicidal ratio of 5% or less (almost no effect)). Further, in the data set on Scirpus juncoides, the “B: Scirpus juncoides” value is 0 (Herbicidal ratio of 5% or less (almost no effect)). Moreover, the “a: transplanted Oryza sativa” value in data set [2] is 0 (Herbicidal ratio of 5% or less (almost no effect)). The “E (herbicidal effect grade)” value with Cyperus difformis is 5 (Herbicidal ratio of 90% or more (almost completely withered)). Besides, in data set [3], the “H (herbicidal effect grade)” value is reported as 5 (Herbicidal ratio of 90% or more (almost completely withered)). Further, the “D (herbicidal effect grade)” value in the data set with Leptochloa chinensis is on record as 5 (Herbicidal ratio of 90% or more (almost completely withered)). Also, the “b (effect on crop grade)” value in data set [4] is 2 (Herbicidal ratio of 20% or more and less than 40%).

Consider `Cc1nnc(NC(=O)c2ccc(C(F)(F)F)n3c(NC(C)C)nnc23)o1` [1-090], for which, in data set [1], the “A: Echinochloa oryzicola Vasing. (herbicidal effect grade)” value was 3 (Herbicidal ratio of 40% or more and less than 70%). Further, the “C: Monochoria vaginalis” value in the data set on Monochoria vaginalis is 2 (Herbicidal ratio of 20% or more and less than 40%). The “B: Scirpus juncoides” value in the data set with Scirpus juncoides is 4 (Herbicidal ratio of 70% or more and less than 90%). Further, the “a: transplanted Oryza sativa” value in data set [2] is on record as 0 (Herbicidal ratio of 5% or less (almost no effect)). The “E (herbicidal effect grade)” value in the data set with Cyperus difformis was 5 (Herbicidal ratio of 90% or more (almost completely withered)). Further, the “H (herbicidal effect grade)” value in data set [3] is listed as 5 (Herbicidal ratio of 90% or more (almost completely withered)). In the data set on Leptochloa chinensis, the “D (herbicidal effect grade)” value is on record as 5 (Herbicidal ratio of 90% or more (almost completely withered)). The “b (effect on crop grade)” value in data set [4] is reported as 0 (Herbicidal ratio of 5% or less (almost no effect)).

On to `CCCSc1nnc2c(C(=O)Nc3nnc(C)o3)ccc(C(F)(F)F)n12` [1-087], for which, in data set [1], the “A: Echinochloa oryzicola Vasing. (herbicidal effect grade)” value was 5 (Herbicidal ratio of 90% or more (almost completely withered)). In the data set with Monochoria vaginalis, the “C: Monochoria vaginalis” value was 3 (Herbicidal ratio of 40% or more and less than 70%). The “a: transplanted Oryza sativa” value in data set [2] is on record as 0 (Herbicidal ratio of 5% or less (almost no effect)). Moreover, the “E (herbicidal effect grade)” value with Cyperus difformis is 5 (Herbicidal ratio of 90% or more (almost completely withered)). Also, in data set [3], the “H (herbicidal effect grade)” value is recorded as 5 (Herbicidal ratio of 90% or more (almost completely withered)). Besides, in the data set on Leptochloa chinensis, the “D (herbicidal effect grade)” value is 5 (Herbicidal ratio of 90% or more (almost completely withered)). Further, in data set [4], the “b (effect on crop grade)” value was 1 (Herbicidal ratio of 5% or more and less than 20%).
